In the supplement of paper PMC13380429:
± gives the standard deviation of the averaged measurements.

Assays:
Settings in all cases: 72 h
Caco-2 [1] = assay: cell viability relative to DMSO; higher = less toxic
Calu-3 [2] = assay: as above
HepG2 [3] = assay: as above
U2OS [4] = assay: as above
Vero E6 [5] = assay: as above
Caco-2 [6] = assay: relative viability EC50 (midpoint between 100% and the lowest measured viability); higher = less toxic
Calu-3 [7] = assay: as above
HepG2 [8] = assay: as above
U2OS [9] = assay: as above
Vero E6 [10] = assay: as above
Caco-2 [11] = assay: drug sensitivity score (DSS) for viability; higher = more toxic; extreme values may be limits of the assay
Calu-3 [12] = assay: as above
HepG2 [13] = assay: as above
U2OS [14] = assay: as above
Vero E6 [15] = assay: as above

Row | SMILES | cell viability (Caco-2 [1]; 1 nM) [%] | cell viability (Caco-2 [1]; 10 nM) [%] | cell viability (Caco-2 [1]; 100 nM) [%] | cell viability (Caco-2 [1]; 1000 nM) [%] | cell viability (Caco-2 [1]; 10000 nM) [%] | cell viability (Calu-3 [2]; 1 nM) [%] | cell viability (Calu-3 [2]; 10 nM) [%] | cell viability (Calu-3 [2]; 100 nM) [%] | cell viability (Calu-3 [2]; 1000 nM) [%] | cell viability (Calu-3 [2]; 10000 nM) [%] | cell viability (HepG2 [3]; 1 nM) [%] | cell viability (HepG2 [3]; 10 nM) [%] | cell viability (HepG2 [3]; 100 nM) [%] | cell viability (HepG2 [3]; 1000 nM) [%] | cell viability (HepG2 [3]; 10000 nM) [%] | cell viability (U2OS [4]; 1 nM) [%] | cell viability (U2OS [4]; 10 nM) [%] | cell viability (U2OS [4]; 100 nM) [%] | cell viability (U2OS [4]; 1000 nM) [%] | cell viability (U2OS [4]; 10000 nM) [%] | cell viability (Vero E6 [5]; 1 nM) [%] | cell viability (Vero E6 [5]; 10 nM) [%] | cell viability (Vero E6 [5]; 100 nM) [%] | cell viability (Vero E6 [5]; 1000 nM) [%] | cell viability (Vero E6 [5]; 10000 nM) [%] | relative viability EC50 (Caco-2 [6]) [µM] | relative viability EC50 (Calu-3 [7]) [µM] | relative viability EC50 (HepG2 [8]) [µM] | relative viability EC50 (U2OS [9]) [µM] | relative viability EC50 (Vero E6 [10]) [µM] | drug sensitivity score (Caco-2 [11]) | drug sensitivity score (Calu-3 [12]) | drug sensitivity score (HepG2 [13]) | drug sensitivity score (U2OS [14]) | drug sensitivity score (Vero E6 [15])
1 | CC(=O)c1c(O)cc(C)oc1=O [dehydroacetic-acid] | 101 | 107 | 91.9 | 104 | 94.9 | 105 | 107 | 98.2 | 101 | 101 | 100 | 103 | 99.9 | 96.7 | 103 | 99.2 | 101 | 96.2 | 103 | 100 | 98 | 93.6 | 92.5 | 101 | 95.4 | > 10 | > 10 | > 10 | > 10 | > 10 | 0 | 0 | 0 | 0 | 0
2 | CC(=O)[C@H]1CC[C@H]2[C@@H]3CC[C@H]4C[C@H](O)CC[C@]4(C)[C@H]3C(=O)C[C@]12C [alfaxalone] | 101 | 101 | 89.6 | 103 | 104 | 94.7 | 99.9 | 87.7 | 97.4 | 101 | 98.6 | 102 | 94.1 | 96.1 | 106 | 97.8 | 99.2 | 97.7 | 103 | 102 | 99.6 | 95.9 | 99.7 | 94.3 | 107 | > 10 | > 10 | > 10 | > 10 | > 10 | 0 | 0 | 0 | 0 | 0
3 | c1ccc2nc(N3CCNCC3)ccc2c1 [quipazine] | 99 | 98.9 | 93.1 | 95.3 | 106 | 102 | 101 | 109 | 96.1 | 99.3 | 93.7 | 97.8 | 99.7 | 93.5 | 101 | 100 | 97.4 | 102 | 100 | 100 | 90.8 | 96.3 | 92.1 | 96.7 | 101 | > 10 | > 10 | > 10 | > 10 | > 10 | 0 | 0 | 0 | 0 | 0
4 | CN1C2CCCC1CC(NC(=O)c1nn(C)c3ccccc13)C2 (stereo not given) [granisetron] | 96.7 | 99.1 | 102 | 105 | 107 | 108 | 106 | 110 | 92.4 | 105 | 109 | 98.1 | 82.7 | 95.1 | 92.7 | 105 | 95.8 | 99.9 | 97.8 | 98.1 | 111 | 102 | 99.9 | 102 | 96.2 | > 10 | > 10 | > 10 | > 10 | > 10 | 0 | 0 | 0 | 0 | 0
5 | O=C(NNc1nc2cc(F)ccc2n2cccc12)c1cnccn1 [SC-144] | 93.3 | 101 | 80.4 | 6.6 | 13.8 | 102 | 95.9 | 93.3 | 6 | 3.9 | 96 | 98.3 | 101 | 15.2 | 20.2 | 104 | 99.3 | 91.8 | 40.1 | 15.9 | 97.1 | 100 | 82.7 | 43.6 | 21.9 | 0.17 | 0.27 | 0.323 | 0.513 | 0.368 | 20 | 18.1 | 15.3 | 12.5 | 12.6
6 | Cc1cc(NC(=O)Nc2ccc(N(C)C)cc2)c2cc(F)cc(F)c2n1 | 100 | 103 | 99.8 | 89.5 | 91.6 | 95.2 | 98.8 | 101 | 105 | 94.7 | 103 | 93.7 | 96.4 | 93.1 | 80.1 | 98.4 | 104 | 99.8 | 103 | 91.9 | 101 | 95.8 | 100 | 97.9 | 100 | > 10 | > 10 | > 10 | > 10 | > 10 | 0.1 | 0 | 0.8 | 0 | 0
7 | C=CCN1C[C@H](C)N([C@H](c2ccc(C(=O)N(CC)CC)cc2)c2cccc(O)c2)C[C@H]1C [BW-373U86] | 101 | 102 | 96.1 | 96.7 | 95.2 | 92.9 | 103 | 107 | 102 | 101 | 95.5 | 93.7 | 101 | 86.9 | 96.3 | 100 | 102 | 96 | 104 | 97.8 | 105 | 100 | 105 | 94.9 | 104 | > 10 | > 10 | > 10 | > 10 | > 10 | 0 | 0 | 0 | 0 | 0
8 | O=C(Oc1cccc2cccnc12)c1ccccc1 [benzoxiquine] | 102 | 99.6 | 102 | 99.2 | 98.1 | 106 | 94.3 | 95.6 | 96 | 93.7 | 104 | 103 | 102 | 102 | 7 | 99.7 | 92.3 | 96.3 | 92.4 | 98.6 | 98.5 | 101 | 99.5 | 98.3 | 93.8 | > 10 | > 10 | 3.26 | > 10 | > 10 | 0 | 0 | 5.1 | 0 | 0
9 | CCCCCCCCCCCCCCCC[N+](C)(C)C [cetrimonium] | 92.7 | 95.9 | 96.3 | 86.6 | 18.5 | 97.7 | 97.8 | 109 | 83.6 | 43.1 | 97.9 | 93.2 | 96.5 | 93.6 | 28 | 99 | 95 | 97.5 | 84.6 | 14.3 | 96.5 | 93.5 | 97.7 | 87.5 | 23.8 | 1.9 | 1.44 | 2.43 | 1.83 | 1.91 | 6.8 | 5.5 | 5 | 7.3 | 6.3
10 | O=C(/C=C/c1ccc2ccc(C(F)(F)F)cc2n1)c1ccncc1 [PFK-158] | 95.9 | 92.8 | 102 | 92.3 | 88.2 | 92.1 | 96.3 | 90.5 | 104 | 89.9 | 97.1 | 84.6 | 96.3 | 102 | 44.9 | 94.4 | 100 | 93.9 | 101 | 0 | 105 | 86.7 | 110 | 92.1 | 87.3 | > 10 | > 10 | 3.37 | 3.22 | > 10 | 0 | 0 | 2.8 | 5.5 | 0.5
11 | Cc1ccc(NC(=O)c2cccc(N(C)C)c2)cc1NC(=O)c1ccc(O)cc1 | 101 | 102 | 89 | 93.6 | 81.8 | 104 | 104 | 91.7 | 94.7 | 99 | 98.8 | 97.7 | 105 | 94.3 | 84.1 | 104 | 100 | 99.5 | 97 | 104 | 101 | 99.8 | 98.4 | 101 | 102 | > 10 | > 10 | > 10 | > 10 | > 10 | 0.8 | 0 | 0.8 | 0 | 0
12 | Cc1cnc(Nc2ccc(OCCN3CCCC3)cc2)nc1Nc1cccc(S(=O)(=O)NC(C)(C)C)c1 [fedratinib] | 101 | 97.1 | 99.3 | 79.6 | 11.9 | 107 | 102 | 100 | 98.5 | 18.3 | 120 | 100 | 101 | 74.2 | 22.2 | 104 | 97.4 | 99.2 | 86.2 | 0.8 | 96 | 104 | 104 | 94.2 | 0.3 | 1.61 | 3.04 | 1.32 | 2.05 | 2.71 | 8.1 | 4.7 | 8 | 7.8 | 6.4
13 | CC1=C(C(=O)O)N2C(=O)[C@@H](NC(=O)[C@H](N)C3=CCC=CC3)[C@H]2SC1 [cephradine] | 96.75 ± 0.92 | 100 ± 9.7 | 94.8 ± 0.85 | 98 ± 3.8 | 103 ± 14 | 92.7 ± 0.85 | 98.1 ± 5.7 | 98.3 ± 2 | 106 ± 9.1 | 89.2 ± 6 | 99.9 ± 3.4 | 94.2 ± 3.5 | 98 ± 7.6 | 102 ± 10 | 108 ± 3.1 | 96.4 ± 0.99 | 99.7 ± 2.4 | 100 ± 3.5 | 103.8 ± 0.78 | 101.7 ± 0.78 | 95.2 ± 3 | 97 ± 3.8 | 94.5 ± 3 | 98.4 ± 4.1 | 99.2 ± 1.1 | > 10 | > 10 | > 10 | > 10 | > 10 | 0 | 0.15 ± 0.21 | 0 | 0 | 0
14 | CN(C)Cc1c(C(=O)NCCOc2ccc(C(=O)NO)cc2)oc2ccccc12 | 90.2 | 101 | 89.2 | 23.6 | 1.4 | 95.3 | 93.2 | 73.5 | 31.9 | 8.2 | 98.9 | 92.7 | 76.5 | 11.4 | 0.1 | 96.9 | 101 | 82.4 | 15.8 | 1.3 | 97.4 | 96.2 | 95.7 | 38.2 | -0.1 | 0.425 | 0.276 | 0.231 | 0.292 | 0.738 | 15.6 | 16.1 | 19 | 17.6 | 13
